Reference: US20260207798A1, “CYCLIC PEPTIDES AS PET IMAGING AGENTS OF GRANZYME B” (priority 2022, published 2026)
Numbered stars: 1 amine (or outer) side, 2 acyl side, 3 side chain; on linkers, the order of the positions; unused ones are H or OH. Bridge positions count the residues as written; N and C are the ends. Square brackets hold non-standard residues; d marks the D form. Primed or numbered codes have the meaning given here. Peptide text beside a SMILES is read from it. I, II: the chains in the order shown. CO(CH2)2(OCH2CH2)17CO = O=C(CCOCCOCCOCCOCCOCCOCCOCCOCCOCCOCCOCCOCCOCCOCCOCCOCCOCCC(=O)[*:2])[*:1]; X5 = O=C(CCOCCOCCOCCOCCOCCOCCOCCOCCOCCOCCOCCC(=O)[*:2])[*:1]; Pro(trans-4-F) = O=C(O)[C@@H]1C[C@@H](F)CN1; Pro(cis-4-F) = O=C(O)[C@@H]1C[C@H](F)CN1; Pro(4R-Me) = C[C@H]1CN[C@H](C(=O)O)C1; Tic = O=C(O)[C@@H]1Cc2ccccc2CN1; PEG2′ = not defined here; Aib = CC(C)(N)C(=O)O

B1: Compound 5a (peptide)
peptide 1: {‑CH2C(O)‑}-FNFEDQSADTWQPCGGK-NH2
peptide 2: {‑CH2C(O)‑}-FNFEDQSADTWQPCGGK-NH2
modifications: linker I:17-II:17 via PEG2′; also: dimer of two macrocycles linked by PEG2 between Lys17 side chains, thioether at chain A 14 to a chain's N-terminus, thioether at chain B 14 to a chain's N-terminus
notes: Dimer of two macrocycles linked by PEG2

The molecules below were run against human Granzyme B (human, UniProt P10144 21-247) (assay: cell-based or functional assay). Conditions: not given.
human Granzyme B, sequence (P10144 21-247 limits assumed): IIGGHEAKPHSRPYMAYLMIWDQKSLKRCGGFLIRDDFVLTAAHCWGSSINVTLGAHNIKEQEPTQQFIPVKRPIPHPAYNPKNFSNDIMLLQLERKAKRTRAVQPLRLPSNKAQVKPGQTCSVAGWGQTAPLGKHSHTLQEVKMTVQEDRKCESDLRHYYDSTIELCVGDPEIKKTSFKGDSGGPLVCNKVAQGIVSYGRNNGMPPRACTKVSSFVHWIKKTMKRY
For B1, the “Human Granzyme B IC50 (fluorogenic substrate enzyme inhibition assay)” value was < 8 nM.

Each molecule was assayed against human Granzyme B (hGranzyme B) (Homo sapiens, UniProt P10144) (assay: Surface plasmon resonance (SPR) binding kinetics to hGranzyme B). Conditions: 25° C., 1:1 binding model, KD=kd/ka; read-out: Granzyme B SPR Kd.
Description: The kinetics of test peptide binding to human Granzyme B (hGranzyme B) was determined by SPR. All experiments were performed at 25° C. using the Biacore 8k+ instrument (Cytiva, Marlborough, MA). The Biacore 8k+ Insight Evaluation Software Version 3.0 was used to fit the data with a 1:1 binding model to determine the association rate constant ka (M^−1s^−1, where “M” ~equals molar and “s” ~equals seconds) and the dissociation rate constant kd (s^−1). These rate constants were used to calculate the equilibrium dissociation constant. KD (M)=kd/ka.
To measure the binding kinetics of peptides of interest, surfaces were prepared by a capture method to a Series S Streptavidin (SA) chip using a 1×HBS-EP+ running buffer (Cytiva). hGranzyme B was diluted to 10 μg/mL in IX HBS-EP+ and flowed over spot 2 of each flow cell on the chip at a flow rate of 10 ul/min for 20 s to achieve a level of capture of ~1100 RU. An unmodified spot 1 of each flow cell was used as a matrix binding control or reference surface. Binding kinetics were measured using single cycle kinetics at 25° C. by injecting 5 concentrations with 3-fold serial dilutions of test peptides from 0.01 μM to 1 μM. Compound dilutions were performed manually in a running buffer containing 1×HBS-EP+(Cytiva), and a final concentration of 2% DMSO. The interaction analyses over hGranzyme B, were performed using a 120 s association time and a 900 s dissociation time. All experiments were conducted at a flow rate of 50 μL/min with a data collection rate of 10 Hz.
Peptide dilution series included 2 zero concentration points (no compound) which were averaged and subtracted from the peptide concentration injection as DMSO control responses. Binding data acquired from the reference surface (matrix binding control) were subtracted from the binding data for hGranzyme B surface on the chip to determine specific binding. Next, the association phase data were solvent corrected to account for any signal fluctuation throughout the experiment due to subtle DMSO concentration differences. Corrected response data were analyzed using the Biacore 8k+ Evaluation Software Version 3.0 according to the manufacturer. SPR data for representative compounds of the disclosure are found in Table 8.
With `C[C@@H]1NC(=O)[C@H](CO)NC(=O)[C@H](CCC(N)=O)NC(=O)[C@H](CC(=O)O)NC(=O)[C@H](CCC(=O)O)NC(=O)[C@H](Cc2ccccc2)NC(=O)[C@H](CC(N)=O)NC(=O)[C@H](Cc2ccccc2)NC(=O)CSC[C@@H](C(=O)NCC(=O)NCC(=O)N[C@@H](CCCCNC(=O)CCOCCOCCOCCOCCOCCOCCOCCOCCOCCOCCOCCC(=O)NCCCC[C@H](NC(=O)CNC(=O)CNC(=O)[C@@H]2CSCC(=O)N[C@@H](Cc3ccccc3)C(=O)N[C@@H](CC(N)=O)C(=O)N[C@@H](Cc3ccccc3)C(=O)N[C@@H](CCC(=O)O)C(=O)N[C@@H](CC(=O)O)C(=O)N[C@@H](CCC(N)=O)C(=O)N[C@@H](CO)C(=O)N[C@@H](C)C(=O)N[C@@H](CC(=O)O)C(=O)N[C@@H]([C@@H](C)O)C(=O)N[C@@H](Cc3c[nH]c4ccccc34)C(=O)N[C@@H](CCC(N)=O)C(=O)N3CCC[C@H]3C(=O)N2)C(N)=O)C(N)=O)NC(=O)[C@@H]2CCCN2C(=O)[C@H](CCC(N)=O)NC(=O)[C@H](Cc2c[nH]c3ccccc23)NC(=O)[C@H]([C@@H](C)O)NC(=O)[C@H](CC(=O)O)NC1=O` [Compound 17a, (*F.N.F.E.D.Q.S.A.D.T.W.Q.P.*C.G.G.K.NH2)-PEG11-(*F.N.F.E.D.Q.S.A.D.T.W.Q.P.*C.G.G.K.NH2)] (I: {CH2CO}-FNFEDQSADTWQPCGGK-NH2 / II: {CH2CO}-FNFEDQSADTWQPCGGK-NH2; linker I:17-II:17 via X5 (inferred); thioether I:N-I:14, II:N-II:14 (inferred)) the Kd was < 0.3 nM.
`C[C@@H]1NC(=O)[C@H](CO)NC(=O)[C@H](CCC(N)=O)NC(=O)[C@H](CC(=O)O)NC(=O)[C@H](CCC(=O)O)NC(=O)[C@H](Cc2ccccc2)NC(=O)[C@H](CC(N)=O)NC(=O)[C@H](Cc2ccccc2)NC(=O)CSC[C@@H](C(=O)NCC(=O)NCC(=O)N[C@@H](CCCCNC(=O)CCOCCOCCOCCOCCOCCOCCOCCOCCOCCOCCOCCOCCOCCOCCOCCOCCOCCC(=O)NCCCC[C@H](NC(=O)CNC(=O)CNC(=O)[C@@H]2CSCC(=O)N[C@@H](Cc3ccccc3)C(=O)N[C@@H](CC(N)=O)C(=O)N[C@@H](Cc3ccccc3)C(=O)N[C@@H](CCC(=O)O)C(=O)N[C@@H](CC(=O)O)C(=O)N[C@@H](CCC(N)=O)C(=O)N[C@@H](CO)C(=O)N[C@@H](C)C(=O)N[C@@H](CC(=O)O)C(=O)N[C@@H]([C@@H](C)O)C(=O)N[C@@H](Cc3c[nH]c4ccccc34)C(=O)N[C@@H](CCC(N)=O)C(=O)N3CCC[C@H]3C(=O)N2)C(N)=O)C(N)=O)NC(=O)[C@@H]2CCCN2C(=O)[C@H](CCC(N)=O)NC(=O)[C@H](Cc2c[nH]c3ccccc23)NC(=O)[C@H]([C@@H](C)O)NC(=O)[C@H](CC(=O)O)NC1=O` [Compound 18a, (*F.N.F.E.D.Q.S.A.D.T.W.Q.P.*C.G.G.K.NH2)-PEG17-(F.N.F.E.D.Q.S.A.D.T.W.Q.P.C.G.G.K.NH2)] (I: {CH2CO}-FNFEDQSADTWQPCGGK-NH2 / II: {CH2CO}-FNFEDQSADTWQPCGGK-NH2; linker I:17-II:17 via CO(CH2)2(OCH2CH2)17CO (inferred); thioether I:N-I:14, II:N-II:14 (inferred)) was tested, and the Kd was < 0.3 nM.
`C[C@@H](O)[C@@H]1NC(=O)CNC(=O)C(C)(C)NC(=O)[C@H](CO)NC(=O)[C@H](CCC(N)=O)NC(=O)[C@H](CC(=O)O)NC(=O)[C@H](CCC(=O)O)NC(=O)[C@H](Cc2ccccc2)NC(=O)[C@H](CC(N)=O)NC(=O)[C@H](Cc2ccccc2)NC(=O)CSC[C@@H](C(=O)NCC(N)=O)NC(=O)[C@@H]2CCCN2C(=O)[C@H](CCC(N)=O)NC(=O)[C@H](Cc2c[nH]c3ccccc23)NC1=O` [Compound 45a, *F.N.F.E.D.Q.S.Aib.G.T.W.Q.P.*C.G.NH2] ({CH2CO}-FNFEDQS[Aib]GTWQPCG-NH2; thioether N-14) was tested, and the Kd was 3.7 nM.
Work on `C[C@@H](O)[C@@H]1NC(=O)[C@H](CC(=O)O)NC(=O)[C@@H]2CCCN2C(=O)[C@H](CO)NC(=O)[C@H](CCC(N)=O)NC(=O)[C@H](CC(=O)O)NC(=O)[C@H](CCC(=O)O)NC(=O)[C@H](Cc2ccccc2)NC(=O)[C@H](CC(N)=O)NC(=O)[C@H](Cc2ccccc2)NC(=O)CSC[C@@H](C(=O)NCC(N)=O)NC(=O)[C@@H]2C[C@H](F)CN2C(=O)[C@H](CCC(N)=O)NC(=O)[C@H](Cc2c[nH]c3ccccc23)NC1=O` [Compound 48a, *F.N.F.E.D.Q.S.P.D.T.W.Q.Proc4F.*C.G.NH2] ({CH2CO}-FNFEDQSPDTWQ[Pro(cis-4-F)]CG-NH2; thioether N-14) yielded a Kd of 4.2 nM.
Work on `C[C@@H](O)[C@@H]1NC(=O)[C@H](CC(=O)O)NC(=O)[C@@H]2CCCN2C(=O)[C@H](CO)NC(=O)[C@H](CCC(N)=O)NC(=O)[C@H](CC(=O)O)NC(=O)[C@H](CCC(=O)O)NC(=O)[C@H](Cc2ccccc2)NC(=O)[C@H](CC(N)=O)NC(=O)[C@H](Cc2ccccc2)NC(=O)CSC[C@@H](C(=O)NCC(=O)NCC(=O)N[C@@H](CCCCN)C(N)=O)NC(=O)[C@@H]2CCCN2C(=O)[C@H](CCC(N)=O)NC(=O)[C@H](Cc2c[nH]c3ccccc23)NC1=O` [Compound 51a, *F.N.F.E.D.Q.S.P.D.T.W.Q.P.*C.G.G.K.NH2] ({CH2CO}-FNFEDQSPDTWQPCGGK-NH2; thioether N-14) yielded a Kd of 4.8 nM.
In the case of `CC(C)C[C@@H]1NC(=O)[C@@H]2CCCN2C(=O)[C@H](CO)NC(=O)[C@H](CCC(N)=O)NC(=O)[C@H](CC(=O)O)NC(=O)[C@H](CCC(=O)O)NC(=O)[C@H](Cc2ccccc2)NC(=O)[C@H](CC(N)=O)NC(=O)[C@H](Cc2ccccc2)NC(=O)CSC[C@@H](C(=O)NCC(N)=O)NC(=O)[C@@H]2CCCN2C(=O)[C@H](CCC(N)=O)NC(=O)[C@H](Cc2c[nH]c3ccccc23)NC(=O)[C@H]([C@@H](C)O)NC1=O` [Compound 52a, *F.N.F.E.D.Q.S.P.L.T.W.Q.P.*C.G.NH2] ({CH2CO}-FNFEDQSPLTWQPCG-NH2; thioether N-14), the Kd is reported as 4.8 nM.
For `C[C@@H](O)[C@@H]1NC(=O)[C@H](CC(=O)O)NC(=O)[C@@H]2CCCN2C(=O)[C@H](CO)NC(=O)[C@H](CCC(N)=O)NC(=O)[C@H](CC(=O)O)NC(=O)[C@H](CCC(=O)O)NC(=O)[C@H](Cc2ccccc2)NC(=O)[C@H](CC(N)=O)NC(=O)[C@H](Cc2ccccc2)NC(=O)CSC[C@@H](C(=O)NCC(N)=O)NC(=O)[C@@H]2Cc3ccccc3CN2C(=O)[C@H](CCC(N)=O)NC(=O)[C@H](Cc2c[nH]c3ccccc23)NC1=O` [Compound 53a, *F.N.F.E.D.Q.S.P.D.T.W.Q.Tic.*C.G.NH2] ({CH2CO}-FNFEDQSPDTWQ[Tic]CG-NH2; thioether N-14), the Kd was 4.9 nM.
For `C[C@@H]1C[C@H]2C(=O)N[C@H](C(=O)NCC(N)=O)CSCC(=O)N[C@@H](Cc3ccccc3)C(=O)N[C@@H](CC(N)=O)C(=O)N[C@@H](Cc3ccccc3)C(=O)N[C@@H](CCC(=O)O)C(=O)N[C@@H](CC(=O)O)C(=O)N[C@@H](CCC(N)=O)C(=O)N[C@@H](CO)C(=O)N3CCC[C@H]3C(=O)N[C@@H](CC(=O)O)C(=O)N[C@@H]([C@@H](C)O)C(=O)N[C@@H](Cc3c[nH]c4ccccc34)C(=O)N[C@@H](CCC(N)=O)C(=O)N2C1` [Compound 55a, *F.N.F.E.D.Q.S.P.D.T.W.Q.Prot4Me.*C.G.NH2] ({CH2CO}-FNFEDQSPDTWQ[Pro(4R-Me)]CG-NH2; thioether N-14), the Kd was 5.1 nM.
Molecule `C[C@@H](O)[C@@H]1NC(=O)[C@H](CC(=O)O)NC(=O)[C@@H]2C[C@@H](F)CN2C(=O)[C@H](CO)NC(=O)[C@H](CCC(N)=O)NC(=O)[C@H](CC(=O)O)NC(=O)[C@H](CCC(=O)O)NC(=O)[C@H](Cc2ccccc2)NC(=O)[C@H](CC(N)=O)NC(=O)[C@H](Cc2ccccc2)NC(=O)CSC[C@@H](C(=O)NCC(=O)NCC(=O)N[C@@H](CCCCN)C(N)=O)NC(=O)[C@@H]2CCCN2C(=O)[C@H](CCC(N)=O)NC(=O)[C@H](Cc2c[nH]c3ccccc23)NC1=O` [Compound 87a, *F.N.F.E.D.Q.S.Prot4F.D.T.W.Q.P.*C.G.G.K.NH2] ({CH2CO}-FNFEDQS[Pro(trans-4-F)]DTWQPCGGK-NH2; thioether N-14) has a Kd of 4.2 nM.
